From US20200331850A1, “NOVEL SULFONAMIDE CARBOXAMIDE COMPOUNDS” (Inflazome Limited, priority 2017, published 2020)
Counter-ions that a name gives are not always drawn.

What was measured:
NLRP3 [1] = biological target: T1, NLRP3 (Homo sapiens, UniProt Q96P20); assay: THP-1 cells pyroptosis assay (LPS + nigericin, resazurin readout); type: cell-based; parameters: Seed THP-1 cells (25,000 cells/well) containing 1.0 μg/ml LPS in 40 μl of RPMI medium; host or cells: THP-1 cells, LPS-primed and nigericin-stimulated; details: NLRP3 inhibitory activity in THP-1 cells, 1.0 μg/ml LPS, 5 μM nigericin
Text: It is well established that the activation of NLRP3 leads to cell pyroptosis and this feature plays an important part in the manifestation of clinical disease (Yan-gang Liu et al., Cell Death & Disease, 2017, 8(2), e2579; Alexander Wree et al., Hepatology, 2014, 59(3), 898-910; Alex Baldwin et al., Journal of Medicinal Chemistry, 2016, 59(5), 1691-1710; Ema Ozaki et al., Journal of Inflammation Research, 2015, 8, 15-27; Zhen Xie & Gang Zhao, Neuroimmunology Neuroinflammation, 2014, 1(2), 60-65; Mattia Cocco et al., Journal of Medicinal Chemistry, 2014, 57(24), 10366-10382; T. Satoh et al., Cell Death & Disease, 2013, 4, e644). Therefore, it is anticipated that inhibitors of NLRP3 will block pyroptosis, as well as the release of pro-inflammatory cytokines (e.g. IL-1β) from the cell. THP-1 cells (ATCC # TIB-202) were grown in RPMI containing L-glutamine (Gibco #11835) supplemented with 1 mM sodium pyruvate (Sigma # S8636) and penicillin (100 units/ml)/streptomycin (0.1 mg/ml) (Sigma # P4333) in 10% Fetal Bovine Serum (FBS) (Sigma # F0804). The cells were routinely passaged and grown to confluency (˜10^6 cells/ml). On the day of the experiment, THP-1 cells were harvested and resuspended into RPMI medium (without FBS). The cells were then counted and viability (>90%) checked by Trypan blue (Sigma # T8154). Appropriate dilutions were made to give a concentration of 625,000 cells/ml. To this diluted cell solution was added LPS (Sigma # L4524) to give a […] Final Assay Concentration (FAC). 40 μl of the final preparation was aliquoted into each well of a 96-well plate. The plate thus prepared was used for compound screening. The following method step-by-step assay was followed for compound screening. • 1. Seed THP-1 cells (25,000 cells/well) containing 1.0 μg/ml LPS in 40 μl of RPMI medium (without FBS) in 96-well, black walled, clear bottom cell culture plates coated with poly-D-lysine (VWR #734-0317) • 2. Add 5 μl compound (8 points half-log dilution, with 10 μM top dose) or vehicle (DMSO 0.1% FAC) to the appropriate wells • 3. […] Add 5 μl nigericin (Sigma # N7143) (FAC 5 μM) to all wells • 5. […] At the end of the incubation period, spin plates at 300×g for 3 mins and remove supernatant • 7. Then add 50 μl of resazurin (Sigma # R7017) (FAC 100 μM resazurin in RPMI medium without FBS) and incubate plates for a further 1-2 hrs at 37° C. and 5% CO2 • 8. Plates were read in an Envision reader at Ex 560 nm and Em 590 nm • 9. IC50 data is fitted to a non-linear regression equation (log inhibitor vs response-variable slope 4-parameters) The results of the pyroptosis assay performed are summarised in Table 1 below as THP IC50.

NLRP3 [2] = biological target: T1, NLRP3; assay: Human whole blood IL1β release assay (LPS + nigericin, AlphaLisa IL-1β); type: cell-based; parameters: Plate out 80 μl of whole blood containing 1βg/ml of LPS in 96-well, clear bottom cell culture plate; from tissue; host or cells: human whole blood from healthy donors, LPS-primed and nigericin-stimulated; details: NLRP3 inhibitory activity in human whole blood, IL-1β release, 10 μM nigericin, read-out: HWB IC50
Protocol: For systemic delivery, the ability to inhibit NLRP3 when the compounds are present within the bloodstream is of great importance. For this reason, the NLRP3 inhibitory activity of a number of compounds in human whole blood was investigated in accordance with the following protocol.
Human whole blood in Li-heparin tubes was obtained from healthy donors from a volunteer donor panel. • 1. Plate out 80 μl of whole blood containing 1βg/ml of LPS in 96-well, clear bottom cell culture plate (Corning #3585) • 2. Add 10 μl compound (8 points half-log dilution with 10 μM top dose) or vehicle (DMSO 0.1% FAC) to the appropriate wells • 3. Incubate for 3 hrs at 37° C., 5% CO2 • 4. Add 10 μl Nigericin (Sigma # N7143) (10 μM FAC) to all wells • 5. Incubate for 1 hr at 37° C., 5% CO2 • 6. At the end of the incubation period, spin plates at 300×g for 5 mins to pellet cells and remove 20 μl of supernatant and add to 96-well v-bottom plates for IL-1β analysis (note: these plates containing the supernatants can be stored at −80° C. to be analysed at a later date) • 7. IL-1β was measured according to the manufacturer protocol (Perkin Elmer-AlphaLisa IL-1 Kit AL220F-5000) • 8. IC50 data is fitted to a non-linear regression equation (log inhibitor vs response-variable slope 4-parameters)

T1 sequence (Q96P20 whole entry): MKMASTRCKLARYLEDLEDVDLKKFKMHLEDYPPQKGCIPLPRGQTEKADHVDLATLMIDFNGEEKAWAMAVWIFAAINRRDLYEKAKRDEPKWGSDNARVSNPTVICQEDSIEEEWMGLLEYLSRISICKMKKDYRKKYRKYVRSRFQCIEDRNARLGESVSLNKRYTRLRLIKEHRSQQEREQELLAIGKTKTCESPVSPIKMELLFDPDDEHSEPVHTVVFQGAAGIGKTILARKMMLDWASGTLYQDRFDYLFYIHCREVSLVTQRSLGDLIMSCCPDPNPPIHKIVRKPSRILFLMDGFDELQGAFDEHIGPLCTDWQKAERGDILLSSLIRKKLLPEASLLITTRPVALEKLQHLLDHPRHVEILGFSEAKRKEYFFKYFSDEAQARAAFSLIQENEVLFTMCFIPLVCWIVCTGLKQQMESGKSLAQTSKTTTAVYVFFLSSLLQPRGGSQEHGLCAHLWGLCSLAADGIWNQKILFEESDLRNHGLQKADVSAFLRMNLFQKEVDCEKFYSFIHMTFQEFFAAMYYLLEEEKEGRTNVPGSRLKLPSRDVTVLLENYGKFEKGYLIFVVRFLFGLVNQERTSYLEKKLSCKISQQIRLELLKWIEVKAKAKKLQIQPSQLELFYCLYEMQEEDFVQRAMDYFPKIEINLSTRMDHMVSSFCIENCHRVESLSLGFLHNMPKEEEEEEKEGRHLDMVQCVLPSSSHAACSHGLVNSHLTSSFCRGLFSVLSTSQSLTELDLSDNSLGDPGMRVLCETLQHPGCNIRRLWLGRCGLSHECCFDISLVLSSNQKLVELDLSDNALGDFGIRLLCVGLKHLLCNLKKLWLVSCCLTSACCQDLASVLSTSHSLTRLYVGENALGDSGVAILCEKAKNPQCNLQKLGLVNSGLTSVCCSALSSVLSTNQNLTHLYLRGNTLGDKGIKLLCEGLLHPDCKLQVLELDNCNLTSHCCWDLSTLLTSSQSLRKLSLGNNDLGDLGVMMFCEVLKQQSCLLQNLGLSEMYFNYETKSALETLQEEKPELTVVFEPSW

IC50 (NLRP3 [1]) [nM]	IC50 (NLRP3 [2]) [nM]	SMILES
1600 to 2000	≤ 5000	CN(C)CCCCS(=O)(=O)NC(=O)Nc1c2c(cc3c1CCC3)CCC2 [Example 82, 4-(Dimethylamino)-N-((1,2,3,5,6,7-hexahydro-s-indacen-4-yl)carbamoyl)butane-1-sulfonamide]
2000 to 10000	≤ 7500	CC(C)N1CC2(COC(CS(=O)(=O)NC(=O)Nc3c4c(cc5c3CCC5)CCC4)C2)C1 (stereo not drawn) [Example 77, N-((1,2,3,5,6,7-Hexahydro-s-indacen-4-yl)carbamoyl)-1-(2-isopropyl-6-oxa-2-azaspiro[3.4]octan-7-yl)methanesulfonamide, Potassium Salt]
2000 to 10000	–	NCCCS(=O)(=O)NC(=O)Nc1c2c(cc3c1CCC3)CCC2 [Example 65, 3-Amino-N-((1,2,3,5,6,7-hexahydro-s-indacen-4-yl)carbamoyl) propane-1-sulfonamide potassium salt]
1600 to 2000	–	COCCC(=O)N(C)CCCS(=O)(=O)NC(=O)Nc1c2c(cc3c1CCC3)CCC2 [Example 94, N-(3-(N-((1,2,3,5,6,7-Hexahydro-s-indacen-4-yl)carbamoyl)sulfamoyl)propyl)-3-methoxy-N-methylpropanamide]
2000 to 10000	–	O=C(Nc1c2c(cc3c1CCC3)CCC2)NS(=O)(=O)CCCCN1CCC1 [Example 86, 4-(Azetidin-1-yl)-N-((1,2,3,5,6,7-hexahydro-s-indacen-4-yl)carbamoyl)butane-1-sulfonamide]
2000 to 10000	–	CC(CN(C)C)S(=O)(=O)NC(=O)Nc1c2c(cc3c1CCC3)CCC2 (stereo not drawn) [Example 26, 1-(Dimethylamino)-N-((1,2,3,5,6,7-hexahydro-s-indacen-4-yl)carbamoyl)propane-2-sulfonamide, potassium salt]
2000 to 10000	–	CC(=O)NCCS(=O)(=O)NC(=O)Nc1c2c(cc3c1CCC3)CCC2 [Example 6, N-(2-(N-((1,2,3,5,6,7-Hexahydro-s-indacen-4-yl)carbamoyl)sulfamoyl)ethyl)acetamide, Potassium Salt]
2000 to 10000	–	CN1CCC(CS(=O)(=O)NC(=O)Nc2c(-c3ccncc3)cc(F)c3c2CCC3)C1 (stereo not drawn) [Example 60, N-((7-Fluoro-5-(pyridin-4-yl)-2,3-dihydro-1H-inden-4-yl)carbamoyl)-1-(1-methylpyrrolidin-3-yl)methanesulfonamide]
2000 to 10000	–	CCN(CCCS(=O)(=O)NC(=O)Nc1c(-c2ccnc(C#N)c2)cc(F)cc1C(C)C)Cc1ccccc1 [Example 46, 3-(Benzyl(ethyl)amino)-N-((2-(2-cyanopyridin-4-yl)-4-fluoro-6-isopropylphenyl)carbamoyl)propane-1-sulfonamide]
2000 to 10000	–	COc1cc(-c2cc(F)cc(C(C)C)c2NC(=O)NS(=O)(=O)Cc2cccnc2)ccn1 [Example 54, N-((4-Fluoro-2-isopropyl-6-(2-methoxypyridin-4-yl)phenyl)carbamoyl)-1-(pyridin-3-yl)methanesulfonamide]
2000 to 10000	–	CN1CCC(CS(=O)(=O)NC(=O)Nc2c3c(cc4c2CCC4)CCC3)CC1 [Example 22, N-((1,2,3,5,6,7-Hexahydro-s-indacen-4-yl)carbamoyl)-1-(1-methylpiperidin-4-yl)methanesulfonamide, Potassium Salt]
2000 to 10000	–	CC(C)N1CC2(CC(S(=O)(=O)NC(=O)Nc3c4c(cc5c3CCC5)CCC4)C2)C1 [Example 39, N-((1,2,3,5,6,7-Hexahydro-s-indacen-4-yl)carbamoyl)-2-isopropyl-2-azaspiro[3.3]heptane-6-sulfonamide, potassium salt]
2000 to 10000	–	CC(C)c1cc(F)cc(C(C)C)c1NC(=O)NS(=O)(=O)CCCN(C)C [Example 101, 3-(Dimethylamino)-N-((4-fluoro-2,6-diisopropylphenyl)carbamoyl)propane-1-sulfonamide]
2000 to 10000	–	O=C(Nc1c2c(cc3c1CCC3)CCC2)NS(=O)(=O)CCCCN1CCOCC1 [Example 9, N-((1,2,3,5,6,7-Hexahydro-s-indacen-4-yl)carbamoyl)-4-morpholinobutane-1-sulfonamide, Potassium Salt]
2000 to 10000	–	CC(C)c1cc(Cl)cc(C(C)C)c1NC(=O)NS(=O)(=O)CCCN(C)C [Example 108, 3-(Dimethylamino)-N-((4-chloro-2,6-diisopropylphenyl)carbamoyl)propane-1-sulfonamide]
1600 to 2000	–	O=C(Nc1c2c(cc3c1CCC3)CCC2)NS(=O)(=O)CCCN1CCOCC1 [Example 15, N-((1,2,3,5,6,7-Hexahydro-s-indacen-4-yl)carbamoyl)-3-morpholinopropane-1-sulfonamide, Potassium Salt]
2000 to 10000	–	CCN(C(C)=O)C1CCC(S(=O)(=O)NC(=O)Nc2c3c(cc4c2CCC4)CCC3)CC1 (stereo not drawn) [Example 63, N-ethyl-N-(4-(N-((1,2,3,5,6,7-hexahydro-s-indacen-4-yl)carbamoyl)sulfamoyl)cyclohexyl)acetamide]
2000 to 10000	–	CN(C)C1CCN(CCCS(=O)(=O)NC(=O)Nc2c3c(cc4c2CCC4)CCC3)CC1 [Example 2, 3-(4-(Dimethylamino)piperidin-1-yl)-N-((1,2,3,5,6,7-hexahydro-s-indacen-4-yl)carbamoyl)propane-1-sulfonamide, potassium salt]
2000 to 10000	–	CC(C)N1CCC(CS(=O)(=O)NC(=O)Nc2c3c(cc4c2CCC4)CCC3)C1 (stereo not drawn) [Example 25, N-((1,2,3,5,6,7-Hexahydro-s-indacen-4-yl)carbamoyl)-1-(1-isopropylpyrrolidin-3-yl)methanesulfonamide, Potassium Salt]
